Measured values published in patent US11780901B2, “Analogues of parathyroid hormone (1-34) that function as agonists of the parathyroid hormone receptor-1 and display modified activity profiles” (Wisconsin Alumni Research Foundation, priority 2013, dated 2023).
Positions count from the first letter of the chain named.

Key:
R^0 state of PTHR1 = biological target: T1, R^0 state of PTHR1 (Homo sapiens, UniProt Q03431); conditions: relative to PTH (1-34); cited from earlier work
T1 construct: expressed in transfected cells; host or cells: COS-7, transient; membranes
T1 sequence (Q03431 27-593): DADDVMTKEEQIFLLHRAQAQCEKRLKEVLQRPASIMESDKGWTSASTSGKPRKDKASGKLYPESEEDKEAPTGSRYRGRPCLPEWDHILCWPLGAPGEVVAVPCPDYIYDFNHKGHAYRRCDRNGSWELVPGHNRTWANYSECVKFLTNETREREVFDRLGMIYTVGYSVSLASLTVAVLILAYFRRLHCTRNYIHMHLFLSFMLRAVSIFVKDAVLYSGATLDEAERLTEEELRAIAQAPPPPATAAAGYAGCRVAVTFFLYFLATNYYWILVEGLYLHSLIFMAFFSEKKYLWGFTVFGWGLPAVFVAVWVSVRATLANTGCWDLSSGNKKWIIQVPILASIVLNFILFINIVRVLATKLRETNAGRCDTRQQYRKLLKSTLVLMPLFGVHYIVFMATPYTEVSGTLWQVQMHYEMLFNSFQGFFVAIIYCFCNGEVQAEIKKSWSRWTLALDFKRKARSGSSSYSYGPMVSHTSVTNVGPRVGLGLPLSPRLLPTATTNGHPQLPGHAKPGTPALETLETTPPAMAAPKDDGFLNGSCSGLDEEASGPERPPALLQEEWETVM

PTHR1 [1] = biological target: T2, PTHR1 (Homo sapiens, UniProt Q03431); assay: Functional selectivity (Gs activation/cAMP production vs βarr recruitment); type: cell-based; set-up: expressed in transfected cells; host or cells: cells stably expressing PTHR1; conditions: cAMP activation vs βarr1 and βarr2 recruitment, relative to PTH (1-34)
T2 sequence (Q03431 27-593): T1 sequence (Q03431 27-593)
Experimental: More specifically, the initial studies that yielded the compounds disclosed and claimed herein were conducted to determine whether there is a correlation between βarr recruitment and receptor residence time of a PTHR1 agonist. The initial studies were thus conducted in two steps. First, the functional selectivity (Gs activation as indicated by cAMP production vs. βarr recruitment) of several PTHR1 agonists that display substantial differences in signaling duration were evaluated. Second, novel PTHR1 agonists were designed that have high functional selectivity and evaluated the signaling duration of these biased agonists.
The functional selectivity of BA058 is more significant than that of PTHrP. […] LA-PTH is a long-acting PTH analog. […] The middle panels in FIG. 2 are graphs depicting, from left-to-right: βarr1 and βarr2 recruitment, presented as normalized BRET signals (bioluminescence resonance energy transfer) as a function of the log of the peptide concentration, and cAmp activation presented as normalized RLU signals (relative light units) as a function of the log of the peptide concentration. Red=PTH. Orange=LA=LA−PTH. Blue=BA058. Green=PTHrP. (BRET assays are well known and suitable kits are available commercially. See, for example, Promega's “NanoBRET” kits, catalogs nos. N1821 and N1811; Promega Corporation, Fitchburg, Wis.). The table at the bottom of FIG. 2 presents the pEC50 and Emax values for the […] and βarr2 recruitment and cAMP activation. FIG. 3 presents the data for the bias of the activity—either toward βarr recruitment or cAMP activation.
Incorporating (R*)-β^2Leu/(D)-Leu at the 7th position or (R*)-β^2Nle at the 8th position leads to high Gs-biased agonism. […] (D)-Nle is poorly tolerated at the 8th position for both cAMP signaling and βarr recruitment. The top panels in FIG. 5 are graphs depicting, from left-to-right: βarr1 and βarr2 recruitment, presented as normalized BRET signals as a function of the log of the peptide concentration, and cAmp activation presented as normalized RLU signals as a function of the log of the peptide concentration. […]

PTHR1-1363Y = biological target: T3, PTHR1-1363Y (Homo sapiens, UniProt Q03431, I363Y); assay: Activation of PTHR1 mutant PTHR1-1363Y; type: cell-based; conditions: data not shown
T3 construct: expressed in transfected cells
T3 sequence (Q03431 27-593 I363Y): T1 sequence (Q03431 27-593) with I337Y
Description: (§1) Reciprocal point mutations of PTHR1 were investigated to see if they would enhance the signaling activity of PTHR2-selective agonists.

PTHR1 [2] = biological target: T2, PTHR1; assay: PTHR1 activation, cAMP production (GloSensor) in HEK293 cells; type: cell-based; set-up: expressed in transfected cells
PTHR1-L2891 = biological target: T4, PTHR1-L2891 (Homo sapiens, UniProt Q03431, L289I); assay: Activation of PTHR1 mutant PTHR1-L2891; type: cell-based; conditions: data not shown
T4 construct: expressed in transfected cells
T4 sequence (Q03431 27-593 L289I): T1 sequence (Q03431 27-593) with L263I
Description: as §1

PTHR2 [3] = biological target: T5, PTHR2 (Homo sapiens, UniProt P49190); assay: Wash-out assay, duration of PTHR2 activation; type: cell-based; set-up: expressed in transfected cells; host or cells: cells stably expressing PTHR2; conditions: for Normalized ligand-off AUC: after washout
T5 sequence (P49190 25-550): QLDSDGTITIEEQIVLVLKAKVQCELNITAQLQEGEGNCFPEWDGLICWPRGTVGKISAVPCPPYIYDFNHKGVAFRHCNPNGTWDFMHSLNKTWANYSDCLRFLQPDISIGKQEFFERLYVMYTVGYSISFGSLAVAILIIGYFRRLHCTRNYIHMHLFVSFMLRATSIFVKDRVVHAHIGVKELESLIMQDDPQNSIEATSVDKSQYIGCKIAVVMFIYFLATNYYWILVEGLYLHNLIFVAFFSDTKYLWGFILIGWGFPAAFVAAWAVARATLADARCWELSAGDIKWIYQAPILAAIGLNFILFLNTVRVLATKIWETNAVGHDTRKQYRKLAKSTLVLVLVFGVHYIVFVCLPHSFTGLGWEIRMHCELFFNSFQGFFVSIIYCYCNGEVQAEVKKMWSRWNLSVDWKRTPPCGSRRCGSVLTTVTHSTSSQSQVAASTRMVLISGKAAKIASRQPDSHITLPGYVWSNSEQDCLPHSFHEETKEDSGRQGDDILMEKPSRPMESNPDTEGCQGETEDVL
Description: Duration of activation for PTHR1 and PTHR2. To assess the duration of PTHR1 and PTHR2 activation induced by α/β-peptides 14 and 15, the time course of cAMP production by each receptor was examined after stimulation with an agonist and subsequent washing of the cells to remove unbound peptide (wash-out assay). […] During the initial “ligand-on” phase, cells stably expressing PTHR1 or PTHR2 were stimulated with an agonist concentration corresponding to ˜EC80; the medium contained D-luciferin. […] After the addition of fresh medium containing D-luciferin, the luminescence decay is measured. The area under the “ligand-off” curve (AUC) reflects the duration of signaling, which may be related to residence time of the agonist on the receptor but could have other origins at the molecular level.

PTHR2 [4] = biological target: T5, PTHR2; assay: PTHR2 activation, cAMP production (GloSensor) in HEK293 cells; type: cell-based; set-up: expressed in transfected cells; conditions: HEK293
In short: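 HEK293 cells stably expressing PTHR2; receptor activation read as cAMP production by GloSensor luminescence. Dose-response curves fit with a four-parameter sigmoidal equation; data are mean±s.e.m. of four independent measurements.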

| agonist activity at PTHR1-1363Y (in words) (PTHR1-1363Y) | PTHR1 agonist activity (in words) (PTHR1 [2]; wild-type PTHR1) | agonist activity at PTHR1-L2891 (in words) (PTHR1-L2891) | Normalized ligand-on Emax (PTHR2 [3]; PTHR2, agonist at ~EC80, PTH(1-34)-NH2 = 100) | Emax (PTHR1 [2]; HEK293) | PTHR1 agonist potency decline (PTHR1 [2]; relative to PTH(1-34)-NH2) | Normalized ligand-off AUC (PTHR2 [3]; PTHR2, PTH(1-34)-NH2 = 100, listed as α/β-peptide 1) | Normalized ligand-off AUC (PTHR2 [3]; PTHR2, PTH(1-34)-NH2 = 100, listed as α/β-peptide 15) | Emax (PTHR2 [3]; read-out: Normalized ligand-on Emax) | Molecule | R0 affinity (in words) (R^0 state of PTHR1) | signaling bias / functional selectivity (in words) (PTHR1 [1]) | Emax (PTHR2 [4]) |
| --- | --- | --- | --- | --- | --- | --- | --- | --- | --- | --- | --- | --- |
| – | – | – | – | – | – | – | – | – | LA-PTH: long-acting PTH analog (AVAEIQLMHQRAKWIQDARRRAFLHKLIAEIHTAEI; Long-acting (LA)-PTH, a parathyroid hormone analog) | high R0 affinity | biased toward βarr1 and βarr2 recruitment relative to cAMP activation | – |
| very weak agonist | does not activate | very weak agonist | 99 ± 1 | – | – | – | – | – | TIP39-NH2: tuberoinfundibular peptide of 39 residues, naturally PTHR2-selective agonist [reference compound] | – | – | – |
| even less susceptible to activation | – | – | – | 79 ± 6% | ~100 fold | 197 ± 16 | more prolonged signaling | 103 ± 1% | CC[C@H](C)[C@H](NC(=O)[C@H](CCC(=O)O)NC(=O)[C@H](CO)NC(=O)[C@@H](CNC(=O)[C@@H](N)CO)C(C)C)C(=O)N[C@@H](CCC(N)=O)CC(=O)N[C@@H](CC(C)C)C(=O)N[C@@H](CCSC)C(=O)N[C@@H](Cc1c[nH]cn1)C(=O)N[C@@H](CC(N)=O)C(=O)N[C@@H](CC(C)C)C(=O)NCC(=O)N[C@@H](CCCCN)C(=O)N[C@@H](Cc1c[nH]cn1)C(=O)N[C@@H](CC(C)C)C(=O)N[C@@H](CC(N)=O)C(=O)N[C@@H](CO)C(=O)N[C@@H](CCSC)C(=O)N[C@@H](CCC(=O)O)C(=O)N[C@@H](CCCNC(=N)N)C(=O)N[C@H](C(=O)N[C@@H](CCC(=O)O)C(=O)N[C@@H](Cc1c[nH]c2ccccc12)C(=O)N[C@@H](CC(C)C)C(=O)N[C@@H](CCCNC(=N)N)C(=O)N[C@@H](CCCCN)C(=O)N[C@@H](CCCCN)C(=O)N[C@@H](CC(C)C)C(=O)N[C@@H](CCC(N)=O)C(=O)N[C@@H](CC(=O)O)C(=O)N[C@H](C(=O)N[C@@H](Cc1c[nH]cn1)C(=O)N[C@@H](CC(N)=O)C(=O)N[C@@H](Cc1ccccc1)C(N)=O)C(C)C)C(C)C [Ligand 15] | – | – | 104 ± 2% |
